The values below come from ChEMBL document CHEMBL1137435, “Synthesis and application of 2'-fluoro-substituted cap analogs” (Bioorg Med Chem Lett, 2007).

A short description of the experiment: Capping efficiency on mRNA after 2 hrs by gel shift assay. A general note: Mobility shift assays separate free from complexed probe on a gel.
With `C[n+]1cn([C@H]2O[C@@H](COP(=O)([O-])OP(=O)(O)OP(=O)(O)OC[C@H]3O[C@@H](n4cnc5c(=O)[nH]c(N)nc54)[C@H](O)[C@@H]3O)[C@H](O)[C@@H]2F)c2nc(N)[nH]c(=O)c21`, the Activity was 70%.
With `C[n+]1cn([C@H]2O[C@@H](COP(=O)([O-])OP(=O)(O)OP(=O)(O)OC[C@H]3O[C@@H](n4cnc5c(=O)[nH]c(N)nc54)[C@H](O)[C@@H]3O)[C@H](O)[C@@H]2O)c2nc(N)[nH]c(=O)c21` the figure was 61%.
With `C[n+]1cn([C@@H]2O[C@H](COP(=O)([O-])OP(=O)([O-])OP(=O)(O)OC[C@@H]3O[C@H](n4c[n+](C)c5c(=O)[nH]c(N)nc54)[C@@H](F)[C@H]3O)[C@@H](O)[C@H]2O)c2nc(N)[nH]c(=O)c21` the figure was 52%.
